Patent US8153630B2, “Kinase inhibitors” (Miikana Therapeutics, Inc., priority 2004, dated 2012)

Tests used:
HCT 116 Cells = experiment: Aurora kinase whole cell cytotoxicity assay: Sulforhodamine B; format: cell-based; settings: Homo sapiens, HCT116, SRB staining, 96 hours incubation
Procedure: Human tumour-derived cell lines, HCT116 or MCF7 (ATCC) were plated in a 96 well plate in DMEM containing 10% fetal bovine serum and 2 mM L-glutamine at a density of 500 HCT116 cells or 1,000 MCF7 cells per well and incubated at 37° C., 5% CO2, for 24 hours prior to the addition of experimental compounds. Compounds were added using the dilution series indicated to duplicate plates and the cells were incubated in media plus compound for 96 hours. An additional plate was fixed in 10% TCA at the time of the addition of compound to provide a measurement of the cell population at time zero, the time of drug addition. Following the 96 hour incubation, cells were fixed in situ by gently aspirating off the culture media and then adding 50 ul of ice cold 10% TCA per well and incubation at 4° C. for 60 minutes. The plates were washed with tap water five times and allowed to air dry for 5 minute. 50 ul of a 0.4% (w/v) Sulforhodamine B solution in 1% (v/v) acetic acid was added per well and the cells were incubated for 30 minutes at room temperature. Following staining, plates were washed four times with 1% acetic acid to remove any unbound dye and then allowed to air dry for 5 minutes. The stain was solubilized with 100 ul of 10 mM Tris pH 10.5 per well and placed on an orbital rotator for 5 minutes. The absorbance was read at 570 nm. Percentage growth was calculated using the absorbance readings from the time zero plate (Tz) and the dilution series plate […] which included a column of cells grown in media without compound as a control (C) using the formulas: [(Ti−Tz)/(C−Tz)]×100 for concentrations for which Ti>/=Tz [(Ti−Tz)/Tz]×100 for concentrations for which Ti<Tz.
Three dose response parameters were calculated for each experimental agent. Growth inhibition of 50% (GI50) was calculated from [(Ti−Tz)/(C−Tz)]×100=50, which was the drug concentration resulting in a 50% reduction in the net protein increase (as measured by SRB staining) in control cells during the drug incubation. The drug concentration resulting in total growth inhibition (TGI) was calculated from Ti=Tz. The LC50 (concentration of drug resulting in a 50% reduction in the measured protein at the end of the drug treatment as compared to that at the beginning) indicating a net loss of cells following treatment ws calculated from [(Ti−Tz)/Tz]×100=−50. Values are calculated for each of these three parameters if the level of activity was reached; however, if the effect was not reached or was exceeded, the value for that parameter is expressed as greater or less than the maximum or minimum concentration tested.

recombinant Aurora A = biological target: T1, recombinant Aurora A (Homo sapiens, UniProt O14965); experiment: PanVera Z'-Lyte Aurora kinase assay; format: biochemical; settings: Z'-Lyte Ser/Thr 1 peptide 2 μM, ATP 10 μM, 1 h
T1 construct: purchased Upstate, Lake Placid, N.Y
T1 sequence (O14965 1-403): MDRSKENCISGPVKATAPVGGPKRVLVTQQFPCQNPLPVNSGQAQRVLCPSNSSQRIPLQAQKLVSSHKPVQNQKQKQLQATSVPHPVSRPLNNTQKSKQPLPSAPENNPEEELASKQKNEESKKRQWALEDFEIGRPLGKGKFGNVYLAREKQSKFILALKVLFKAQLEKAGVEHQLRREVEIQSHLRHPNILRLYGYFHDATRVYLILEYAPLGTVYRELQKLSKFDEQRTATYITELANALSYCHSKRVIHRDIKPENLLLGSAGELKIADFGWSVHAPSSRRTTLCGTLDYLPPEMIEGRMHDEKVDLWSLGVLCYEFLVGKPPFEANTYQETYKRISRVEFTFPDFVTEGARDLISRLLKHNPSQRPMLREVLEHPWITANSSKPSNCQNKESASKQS
Procedure: Compounds 7-14 above were tested for their potency against recombinant Aurora A (Upstate, Lake Placid, N.Y.) using the PanVera Z'-Lyte kinase assay kit—Ser/Thr 1 peptide (Invitrogen, Carlsbad, Calif.). Assays were carried out in kinase assay buffer (50 mM HEPES, pH 7.5, 10 mM MgCl2, 5 mM EGTA, 0.05% Brij-35, 2 mM DTT). Test compounds were initially dissolved in DMSO at 100× the highest tested concentration, then serially diluted to 4× test concentrations in kinase assay buffer. Next, Aurora A (final concentration 200-500 ng/mL), Z′-Lyte Ser/Thr 1 peptide (final concentration 2 μM) and ATP (final concentration 10 μM) were added according to the manufacturer's instructions. Assays were carried out in half-area 96-well white polystyrene assay plates (Corning, Corning, N.Y.) in a final volume of 20 μL. The reaction was allowed to proceed for 1 h at room temperature in the dark, at which point the development reagent and stop reagent were added according to the manufacturer's instructions. Coumarin (Ex. 400 nm, Em. 465 nm) and fluorescein (Ex. 400 nm, Em. 565 nm) fluorescence values were measured on a SpectraFluor Plus plate reader (Tecan, Durham, N.C.). The emission ratio (coumarin/fluorescein) was determined and used to calculate the percent phosphorylation for each well. Wells containing substrate but no kinase and wells containing a phosphopeptide control were used to set 0% and 100% phosphorylation values, respectively. Typically 20-40% of the substrate was phosphorylated in wells without inhibitor. Dose-response curves of relative Aurora A activity vs. inhibitor concentration were plotted with Grafit (Erithacus Software, Horley, Surrey, UK) and used to calculate IC50 values.

SMILES | GI50 (HCT 116 Cells) | IC50 (recombinant Aurora A)
COC(=O)c1nc(Sc2ccc(NC(=O)C3CC3)cc2)nc(Nc2cc(C)[nH]n2)c1N [Compound 7, Methyl 2-(4-cyclopropanecarboxamidophenylsulfanyl)-5-amino-6-(5-methylpyrazol-3-ylamino)-4-pyrimidinecarboxylate] | 100 to 1000 nM | < 100 nM
Cc1cc(Nc2nc(Sc3ccc(NC(=O)C4CC4)cc3)nc(C(=O)O)c2N)n[nH]1 [Compound 8, 2-(4-Cyclopropanecarboxamidophenylsulfanyl)-5-amino-6-(5-methylpyrazol-3-ylamino)-4-pyrimidinecarboxylic acid] |  | < 100 nM
CNC(=O)c1nc(Sc2ccc(NC(=O)C3CC3)cc2)nc(Nc2cc(C)[nH]n2)c1N [Compound 9, Methyl 2-(4-cyclopropanecarboxamidophenylsulfanyl)-5-amino-6-(5-methylpyrazol-3-ylamino)-4-pyrimidinecarboxamide] |  | < 100 nM
Cc1cc(Nc2nc(Sc3ccc(NC(=O)C4CC4)cc3)nc(C(=O)NCCN(C)C)c2N)n[nH]1 [Compound 12, N-[2-(N,N-dimethylamino)ethyl]-2-(4-cyclopropane-carboxamidophenylsulfanyl)-5-amino-6-(5-methylpyrazol-3-ylamino)-4-pyrimidine carboxamide] | 1000 to 10000 nM | < 100 nM
CCOC(=O)c1nc(S(=O)(=O)c2ccc(NC(=O)C3CC3)cc2)nc(Nc2cc(C)[nH]n2)c1N [Compound 13, Ethyl 2-(4-cyclopropanecarboxamidophenylsulfonyl)-5-amino-6-(5-methylpyrazol-3-ylamino)-4-pyrimidinecarboxylate] |  | < 100 nM
CCOC(=O)c1nc([S+]([O-])c2ccc(NC(=O)C3CC3)cc2)nc(Nc2cc(C)[nH]n2)c1N (stereo not shown) [Compound 14, ethyl 2-(4-cyclopropane-carboxamidophenylsulfinyl)-5-amino-6-(5-methylpyrazol-3-ylamino)-4-pyrimidinecarboxylate] |  | < 100 nM
Cc1cc(Nc2nc(Sc3ccc(NC(=O)C4CC4)cc3)nc(C(=O)NCCN3CCCCC3)c2N)n[nH]1 [Compound 17, N-(2-Piperidin-1-ylethyl) 2-(4-cyclopropanecarboxamidophenylsulfanyl)-5-amino-6-(5-methylpyrazol-3-ylamino)-4-pyrimidinecarboxamide] | 100 to 1000 nM | < 100 nM
Cc1cc(Nc2nc(Sc3ccc(NC(=O)C4CC4)cc3)nc(C(=O)OCCN3CCOCC3)c2N)n[nH]1 [Compound 18, 2-Morpholin-4-ylethyl 2-(4-cyclopropanecarboxamidophenylsulfanyl)-5-amino-6-(5-methylpyrazol-3-ylamino)-4-pyrimidinecarboxylate] | 1000 to 10000 nM | < 100 nM
Cc1cc(Nc2nc(Sc3ccc(NC(=O)C4CC4)cc3)nc(C(=O)OC3CCOCC3)c2N)n[nH]1 [Compound 19, Tetrahydro-2H-pyran-4-yl 2-(4-cyclopropanecarboxamidophenylsulfanyl)-5-amino-6-(5-methylpyrazol-3-ylamino)-4-pyrimidinecarboxylate] | 100 to 1000 nM | < 100 nM
CCOC(=O)c1nc(Nc2ccc(NC(C)=O)nc2)nc(Nc2cc(C)[nH]n2)c1N [Compound 34, Ethyl 2-(6-acetylamido-3-pyridylamino)-5-amino-6-(5-methylpyrazol-3-ylamino)-4-pyrimidinecarboxylate] |  | 100 to 1000 nM
CCOC(=O)c1nc(Nc2ccc(NC(=O)C3CC3)cc2)nc(Nc2cc(C)[nH]n2)c1N [Compound 36, Ethyl 2-({4-[(cyclopropylcarbonyl)amino]phenyl}amino)-5-amino-6-(5-methylpyrazol-3-ylamino)-4-pyrimidinecarboxylate] | 1000 to 10000 nM | < 100 nM
COCCOC(=O)c1nc(Sc2ccc(NC(=O)C3CC3)cc2)nc(Nc2cc(C)[nH]n2)c1N [Compound 40, 2-Methoxyethyl 2-(4-cyclopropanecarboxamidophenylsulfanyl)-5-amino-6-(5-methylpyrazol-3-ylamino)-4-pyrimidinecarboxylate] | 100 to 1000 nM | < 100 nM
CSCCOC(=O)c1nc(Sc2ccc(NC(=O)C3CC3)cc2)nc(Nc2cc(C)[nH]n2)c1N [Compound 41] | 100 to 1000 nM | < 100 nM
Cc1cc(Nc2nc(Sc3ccc(NC(=O)C4CC4)cc3)nc(C(=O)OC3CCCCC3)c2N)n[nH]1 [Compound 42, Cyclohexyl 2-(4-cyclopropanecarboxamidophenylsulfanyl)-5-amino-6-(5-methylpyrazol-3-ylamino)-4-pyrimidinecarboxylate] | 100 to 1000 nM | < 100 nM
COCCNC(=O)c1nc(Sc2ccc(NC(=O)C3CC3)cc2)nc(Nc2cc(C)[nH]n2)c1N [Compound 43, N-(2-Methoxyethyl) 2-(4-cyclopropanecarboxamidophenylsulfanyl)-5-amino-6-(5-methylpyrazol-3-ylamino)-4-pyrimidinecarboxamide] | 100 to 1000 nM | < 100 nM
Cc1cc(Nc2nc(Sc3ccc(NC(=O)C4CC4)cc3)nc(C(=O)N3CCOCC3)c2N)n[nH]1 [Compound 44, Morpholin-4-yl 2-(4-cyclopropanecarboxamidophenylsulfanyl)-5-amino-6-(5-methylpyrazol-3-ylamino)-4-pyrimidinecarboxamide] | 1000 to 10000 nM | < 100 nM
Cc1cc(Nc2nc(Sc3ccc(NC(=O)C4CC4)cc3)nc(C(=O)N3CCSCC3)c2N)n[nH]1 [Compound 45, Thiomorpholin-4-yl 2-(4-cyclopropanecarboxamidophenylsulfanyl)-5-amino-6-(5-methylpyrazol-3-ylamino)-4-pyrimidinecarboxamide] | 1000 to 10000 nM | < 100 nM
Cc1cc(Nc2nc(Sc3ccc(NC(=O)C4CC4)cc3)nc(C(=O)OCCN(C)C)c2N)n[nH]1 [Compound 46, 2-Dimethylaminoethyl 2-(4-cyclopropanecarboxamidophenylsulfanyl)-5-amino-6-(5-methylpyrazol-3-ylamino)-4-pyrimidinecarboxylate] | 100 to 1000 nM | < 100 nM
Cc1cc(Nc2nc(Sc3ccc(NC(=O)C4CC4)cc3)nc(C(=O)OC3CCN(C)CC3)c2N)n[nH]1 [Compound 47, 1-Methylpiperidin-4-yl 2-(4-cyclopropanecarboxamidophenylsulfanyl)-5-amino-6-(5-methylpyrazol-3-ylamino)-4-pyrimidinecarboxylate] | 100 to 1000 nM | < 100 nM
Cc1cc(Nc2nc(Sc3ccc(NC(=O)C4CC4)cc3)nc(C(=O)Nc3ccccc3)c2N)n[nH]1 [Compound 60, N-Phenyl 2-(4-cyclopropanecarboxamidophenylsulfanyl)-5-amino-6-(5-methylpyrazol-3-ylamino)-4-pyrimidinecarboxamide] |  | 100 to 1000 nM
